Experimental data as given in ChEMBL document CHEMBL5113390, “Design, synthesis and antitumor evaluation of novel 1H-indole-2-carboxylic acid derivatives targeting 14-3-3η protein” (Eur J Med Chem, 2022).

Key:
14-3-3 protein eta = target: T1, 14-3-3 protein eta (Homo sapiens, UniProt Q04917); assay: Binding affinity to 14-3-3 eta (unknown origin) assessed as dissociation constant by biolayer interferometry assay
T1 sequence (Q04917 whole entry): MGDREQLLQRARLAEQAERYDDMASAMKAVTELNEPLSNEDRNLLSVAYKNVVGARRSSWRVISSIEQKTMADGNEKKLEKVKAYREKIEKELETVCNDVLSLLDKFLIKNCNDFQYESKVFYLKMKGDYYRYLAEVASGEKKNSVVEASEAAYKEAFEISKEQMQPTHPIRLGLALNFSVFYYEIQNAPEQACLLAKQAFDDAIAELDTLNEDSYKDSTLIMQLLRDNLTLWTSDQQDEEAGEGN

Bel-7402 = assay: Antiproliferative activity against human Bel-7402 cells assessed as reduction in cell viability incubated for 72 hrs by MTT assay; format: functional, cell-based; details: Bel-7402, 72 h
Hep 3B2 = assay: Antiproliferative activity against human Hep3B cells assessed as reduction in cell viability incubated for 72 hrs by MTT assay; format: functional, cell-based
SNU-387 = assay: Antiproliferative activity against human SNU-387 cells assessed as reduction in cell viability incubated for 72 hrs by MTT assay; format: functional, cell-based; details: SNU-387, 72 h
Bel7402/5-FU = assay: Antiproliferative activity against human BEL-7402/5-FU cells overexpressing 14-3-3 eta assessed as reduction in cell viability incubated for 72 hrs by MTT assay; format: functional, cell-based
SMMC-7721 = assay: Antiproliferative activity against human SMMC-7721 cells assessed as reduction in cell viability incubated for 72 hrs by MTT assay; format: functional, cell-based; details: SMMC-7721, 72 h
HepG2 = assay: Antiproliferative activity against human HepG2 cells assessed as reduction in cell viability incubated for 72 hrs by MTT assay; format: functional, cell-based; details: HepG2, 72 h

Structure (SMILES) | Kd (14-3-3 protein eta) [µM] | IC50 (Bel-7402) [µM] | IC50 (SNU-387) [µM] | IC50 (Bel7402/5-FU) [µM] | IC50 (SMMC-7721) [µM] | IC50 (HepG2) [µM] | IC50 (Hep 3B2) [µM]
COc1cccc(CNCc2c(C(=O)O)n(Cc3ccc(F)cc3)c3ccccc23)c1 | 160 | > 50 | – | – | – | – | –
COc1cccc(CNCc2c(C(=O)O)n(Cc3ccccc3)c3cc(C(C)C)ccc23)c1 | 55 | 5.9 | 5.09 | 5.92 | 3.53 | 3.18 | 4.11
CCNC(=O)c1c(CNCc2ccc(OC)cc2)c2ccccc2n1Cc1ccc(OC)cc1 | – | 58.9 | – | – | – | – | –
COc1cccc(CNCc2c(C(=O)O)n(Cc3ccccc3)c3cc(C)ccc23)c1 | – | 12.5 | 8.17 | 12.1 | 4.72 | 5.21 | 7.31
COc1ccc(Cn2c(C(=O)O)c(CN(C)Cc3cccc(OC)c3)c3ccc(C)cc32)cc1 | > 200 | 33 | 20.1 | 7.47 | 11 | 15.4 | 14.5
COc1cccc(CNCc2c(C(=O)O)n(Cc3ccccc3)c3ccccc23)c1 | – | > 50 | – | – | – | – | –
COc1cccc(CNCc2c(C(=O)O)n(Cc3ccccc3F)c3cc(C)ccc23)c1 | > 200 | > 50 | – | – | – | – | –
COc1cccc(CNCc2c(C(=O)O)n(Cc3ccc(C)cc3)c3ccccc23)c1 | – | 21.5 | 14.3 | 9.33 | 6.27 | 14 | 14.5
O=[As][As+](=O)[O-] (centres undefined) [ARSENIC TRIOXIDE] | 110 | – | – | – | – | – | –
COc1ccc(Cn2c(C(=O)O)c(CNCc3cccc(O)c3)c3ccccc32)cc1 | – | > 50 | – | – | – | – | –
COc1cccc(CNCc2c(C(=O)O)n(Cc3ccccc3F)c3ccccc23)c1 | – | > 50 | – | – | – | – | –
CNC(=O)c1cc(Oc2ccc(NC(=O)Nc3ccc(Cl)c(C(F)(F)F)c3)cc2)ccn1 [SORAFENIB] | – | 6.03 | 12.3 | 13.3 | 4.88 | 3.3 | 5.49
COc1cccc(CNCc2c(C(=O)O)n(Cc3ccccc3F)c3cc(C(C)C)ccc23)c1 | 37 | 5.59 | 6.09 | 5.21 | 3.23 | 3.3 | 5.19
COc1cccc(CNCc2c(C(=O)O)n(Cc3ccc(O)cc3)c3ccccc23)c1 | – | > 50 | – | – | – | – | –
COc1cccc(CNCc2c(C(=O)O)n(Cc3ccc(O)cc3)c3cc(C(C)C)ccc23)c1 | 74 | 7.08 | 5.13 | > 50 | 3.73 | 1.63 | 5.34
COc1cccc(CNCc2c(C(=O)O)n(Cc3ccc(N)cc3)c3cc(C(C)C)ccc23)c1 | – | 9.57 | 9.01 | > 50 | 11.3 | 7.4 | 11.2

Second part, led by results:

Kd (14-3-3 protein eta) [µM] | IC50 (Bel-7402) [µM] | IC50 (SNU-387) [µM] | IC50 (Bel7402/5-FU) [µM] | IC50 (SMMC-7721) [µM] | IC50 (HepG2) [µM] | Structure (SMILES) | IC50 (Hep 3B2) [µM]
– | > 50 | – | – | – | – | COc1ccc(Cn2c(C(=O)O)c(CNCc3cccc(OC)c3)c3ccc(C(F)(F)F)cc32)cc1 | –
– | 8.38 | 5.4 | 7.9 | 5.83 | 3.66 | COc1ccc(Cn2c(C(=O)O)c(CNCc3ccc(O)c(OC)c3)c3ccc(C(C)C)cc32)cc1 | 4.71
140 | > 50 | – | – | – | – | COc1ccc(Cn2c(C(=O)O)c(CNCc3ccc(O)c(OC)c3)c3ccccc32)cc1 | –
– | 19.8 | 9.91 | > 50 | 34.8 | 4.52 | COc1ccc(Cn2c(C(=O)O)c(CNCc3cccc(O)c3)c3ccc(C)cc32)cc1 | 11.8
56 | > 50 | – | – | – | – | COc1ccc(Cn2c(C(=O)O)c(CNC(=O)c3cccc(OC)c3)c3ccc(C)cc32)cc1 | –
> 200 | 13.3 | 6.15 | > 50 | 7.73 | 3.74 | COc1ccc(Cn2c(C(=O)O)c(CNCc3ccc(O)c(OC)c3)c3ccc(C)cc32)cc1 | 8.2
– | 5.67 | 5.29 | 7.31 | 3.44 | 5.05 | COc1cccc(CNCc2c(C(=O)O)n(Cc3ccc(C)cc3)c3cc(C)ccc23)c1 | 6.33
– | 9.83 | – | – | – | – | COc1ccc(Cn2c(C(=O)O)c(CNCc3cccc(OC)c3)c3ccc(C)cc32)cc1 | –
– | > 50 | – | – | – | – | COc1cccc(CNCc2c(C(=O)O)n(Cc3ccc(O)cc3)c3cc(C)ccc23)c1 | –
– | > 50 | – | – | – | – | COc1ccc(Cn2c(C(=O)O)c(CNCc3cc(OC)ccc3O)c3ccc(C)cc32)cc1 | –
– | > 50 | – | – | – | – | COc1ccc(Cn2c(C(=O)O)c(CNCc3cccc(OC)c3)c3ccc(C(F)F)cc32)cc1 | –
– | 52.9 | – | – | – | – | COc1ccc(Cn2c(C(=O)O)c(CNCc3cccc(OC)c3)c3ccccc32)cc1 | –
22 | 9.27 | 6.86 | 15.2 | 5.03 | 4.92 | COc1ccc(Cn2c(C(=O)O)c(CNCc3cccc(O)c3)c3ccc(C(C)C)cc32)cc1 | 6.6
